Conditions: Liquid, Pulse-echo method

CC(C)CC(C)(C)C [2,2,4-trimethylpentane]
speed of sound [m/s]
Conditions	293.15 K	303.15 K	313.15 K	323.15 K	333.15 K	343.15 K	353.15 K	363.15 K	373.15 K
100 kPa	1104.6	1061.7	1019.1	977.9	935.8	897.3	858.2	817.2	780.4
10000 kPa	1178.5	1139.3	1100.9	1063.5	1026.6	992.6	958	924.3	891
20000 kPa	1244.6	1208.6	1173	1138.8	1105.2	1071.6	1041.7	1011.1	980.7
30000 kPa	1304.8	1270.2	1237	1204.7	1173	1142.7	1114.1	1085.5	1057.5
40000 kPa	1358.5	1326.8	1295.2	1264.6	1234.2	1205.7	1178.7	1151.4	1125.2
50000 kPa	1410.3	1378.5	1349.3	1319	1290.2	1262.9	1236.1	1211.3	1185.9
60000 kPa	1458.1	1427	1397.6	1369.8	1341.8	1315.4	1290.4	1265.7	1242.1
70000 kPa	1502.5	1472.6	1443.4	1416.6	1390	1363.5	1339.5	1316.6	1293.1
80000 kPa	1544.7	1515.6	1487.6	1461.2	1434.9	1410.8	1386.8	1364.4	1341.5
90000 kPa	1584.5	1556.4	1529	1503.4	1479	1453.6	1431	1408.2	1386
100000 kPa	1622.6	1594.5	1568.7	1543.4	1519	1495.3	1472.5	1449.9	1428.5
110000 kPa	1658.9	1632.1	1605.9	1581.4	1557.7	1534	1512.1	1490.6	1469.2
120000 kPa	1694	1667.5	1641.7	1617.8	1594.1	1571.7	1549.6	1529	1508.2
130000 kPa	1727.5	1701.6	1676.3	1653.1	1629.5	1607.2	1585.9	1565.5	1545.1
140000 kPa	1760.1	1734.3	1709.4	1686.4	1663.5	1641.7	1620.5	1600.8	1580.3
150000 kPa	1791.1	1766.4	1741.7	1718.6	1696.2	1675	1654.1	1634.2	1614

CCC(C)C(C)C (stereo not drawn) [2,3-dimethylpentane]
speed of sound [m/s]
Conditions	293.15 K	303.15 K	313.15 K	323.15 K	333.15 K	343.15 K	353.15 K	363.15 K	373.15 K
100 kPa	1149.5	1103.2	1061.2	1017.4	973.7	931	889.5	849.4	808.9
10000 kPa	1220.2	1178.6	1138	1099.7	1061.7	1022.5	986.1	950.4	914.8
20000 kPa	1284.8	1245.9	1207.8	1171.8	1136.5	1101.8	1067.4	1035.4	1003.1
30000 kPa	1342.3	1306.5	1270.7	1236.2	1203.1	1170.5	1138.8	1108.4	1079
40000 kPa	1396.2	1361.5	1327.2	1294.8	1263.1	1232	1201.8	1173.6	1145.4
50000 kPa	1445.3	1411.9	1379.5	1348.2	1317.7	1287.5	1259.9	1232.3	1205.1
60000 kPa	1491.9	1458.5	1428.2	1397.8	1368.8	1339.8	1312.3	1286.2	1260.3
70000 kPa	1535.2	1503.4	1473.4	1444.3	1416	1388.3	1361.7	1336.7	1311.6
80000 kPa	1576.5	1545.5	1516.6	1488.2	1460.6	1433.1	1407.9	1383.4	1358.8
90000 kPa	1616.1	1585.9	1557.2	1529.5	1502.6	1476.4	1451	1427.8	1403.8
100000 kPa	1653	1623.9	1595.8	1569.1	1542.8	1516.8	1492.5	1469.5	1446.4
110000 kPa	1688.6	1660	1632.9	1606.4	1580.5	1555.6	1531.5	1508.7	1486.3
120000 kPa	1723.2	1694.7	1668.4	1642.2	1617.1	1592.3	1569.2	1546.8	1524.6
130000 kPa	1756.3	1728.8	1702.5	1676.9	1652.2	1627.9	1604.7	1583	1561.1
140000 kPa	1788	1760.4	1735.5	1713.3	1685.7	1661.8	1639.3	1617.8	1596.4
150000 kPa	1818.6	1792.3	1766.7	1742.2	1718.3	1694.8	1672.8	1650.9	1630.2

Source: the NIST ThermoML archive (doi:10.1021/je0502849)
